# Source: ChEMBL document CHEMBL6109136, “Discovery of the 2,3-Dihydrobenzopyrane-4-one as a Potent FTO Inhibitor against Obesity-Related Metabolic Diseases” (J Med Chem, 2025)
# How the values were obtained:
# [1] = biological target: T1, Alpha-ketoglutarate-dependent dioxygenase FTO (Homo sapiens, UniProt Q9C0B1); assay: Inhibition of His-tagged N-terminal FTO (unknown origin)
# [2] = biological target: T2, Cytochrome P450 2C9 (Homo sapiens, UniProt P11712); assay: Inhibition of CYP2C9 in human liver microsome by Liquid chromatography-tandem mass spectrometric analysis
# T2 sequence (P11712 whole entry): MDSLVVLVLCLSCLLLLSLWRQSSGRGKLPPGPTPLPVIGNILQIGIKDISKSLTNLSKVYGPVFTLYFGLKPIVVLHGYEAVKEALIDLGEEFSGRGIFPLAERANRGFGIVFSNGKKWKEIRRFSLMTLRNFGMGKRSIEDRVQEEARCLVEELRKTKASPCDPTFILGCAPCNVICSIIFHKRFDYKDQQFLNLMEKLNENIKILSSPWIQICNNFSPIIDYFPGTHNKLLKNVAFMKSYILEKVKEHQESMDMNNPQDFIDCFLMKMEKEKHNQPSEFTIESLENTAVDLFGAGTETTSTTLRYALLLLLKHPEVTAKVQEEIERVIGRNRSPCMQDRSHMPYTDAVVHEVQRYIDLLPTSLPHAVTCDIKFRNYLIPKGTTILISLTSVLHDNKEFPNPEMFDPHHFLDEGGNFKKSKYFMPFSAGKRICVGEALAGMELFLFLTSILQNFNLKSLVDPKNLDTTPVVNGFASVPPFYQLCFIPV
# [3] = biological target: T1, Alpha-ketoglutarate-dependent dioxygenase FTO; assay: Binding affinity to GFP-tagged FTO (unknown origin) assessed as dissociation constant by microscale thermophoresis analysis
# [4] = biological target: T1, Alpha-ketoglutarate-dependent dioxygenase FTO; assay: Binding affinity to GFP-tagged FTO (unknown origin) assessed as dissociation constant by SPR analysis
# [5] = Binding affinity to GFP-tagged FTO Arg96 mutant (unknown origin) assessed as dissociation constant by microscale thermophoresis analysis
# [6] = Binding affinity to GFP-tagged FTO Tyr108 mutant (unknown origin) assessed as dissociation constant by microscale thermophoresis analysis
# [7] = Binding affinity to GFP-tagged FTO (Ser229) mutant (unknown origin) assessed as dissociation constant by microscale thermophoresis analysis
# [8] = Binding affinity to GFP-tagged FTO Asp233 mutant (unknown origin) assessed as dissociation constant by microscale thermophoresis analysis
# [9] = Binding affinity to GFP-tagged FTO Glu234 mutant (unknown origin) assessed as dissociation constant by microscale thermophoresis analysis
# [10] = biological target: T2, Cytochrome P450 2C9; assay: Inhibition of recombinant CYP2C9 in human liver microsome by Liquid chromatography-tandem mass spectrometric analysis
# [11] = biological target: Cytochrome P450 2C19 (Homo sapiens, UniProt P33261); assay: Inhibition of recombinant CYP2C19 in human liver microsome by Liquid chromatography-tandem mass spectrometric analysis
# Chain of Cytochrome P450 2C19 (P33261 whole entry): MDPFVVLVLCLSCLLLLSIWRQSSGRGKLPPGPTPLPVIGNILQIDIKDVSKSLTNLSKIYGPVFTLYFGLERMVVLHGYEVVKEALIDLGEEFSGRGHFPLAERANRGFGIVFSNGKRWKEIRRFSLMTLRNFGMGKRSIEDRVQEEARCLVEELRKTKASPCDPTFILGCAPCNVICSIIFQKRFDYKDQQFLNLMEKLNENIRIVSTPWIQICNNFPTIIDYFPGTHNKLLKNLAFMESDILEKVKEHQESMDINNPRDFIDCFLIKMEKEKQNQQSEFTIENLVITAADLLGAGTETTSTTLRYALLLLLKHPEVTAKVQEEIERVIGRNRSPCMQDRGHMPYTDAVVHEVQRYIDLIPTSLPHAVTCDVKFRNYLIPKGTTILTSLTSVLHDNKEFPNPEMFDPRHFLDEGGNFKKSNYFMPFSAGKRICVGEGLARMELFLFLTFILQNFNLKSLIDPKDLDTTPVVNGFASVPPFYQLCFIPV
# [12] = biological target: Cytochrome P450 2D6 (Homo sapiens, UniProt P10635); assay: Inhibition of recombinant CYP2D6 in human liver microsome by Liquid chromatography-tandem mass spectrometric analysis
# Chain of Cytochrome P450 2D6 (P10635 whole entry): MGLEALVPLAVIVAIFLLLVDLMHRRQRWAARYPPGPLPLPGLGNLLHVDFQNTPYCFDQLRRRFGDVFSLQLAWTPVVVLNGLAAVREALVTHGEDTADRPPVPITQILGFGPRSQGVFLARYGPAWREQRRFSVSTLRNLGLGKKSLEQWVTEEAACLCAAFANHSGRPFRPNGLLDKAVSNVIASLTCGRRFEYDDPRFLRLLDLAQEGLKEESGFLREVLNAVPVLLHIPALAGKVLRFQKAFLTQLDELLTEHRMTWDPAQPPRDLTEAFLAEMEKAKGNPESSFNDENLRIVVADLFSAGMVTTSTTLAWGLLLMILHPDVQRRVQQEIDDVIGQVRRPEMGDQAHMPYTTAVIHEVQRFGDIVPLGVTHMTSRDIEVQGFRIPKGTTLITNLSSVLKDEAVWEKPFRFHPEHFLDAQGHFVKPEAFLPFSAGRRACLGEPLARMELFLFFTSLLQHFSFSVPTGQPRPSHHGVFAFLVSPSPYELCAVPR
# [13] = biological target: CYP3A4/5 (Homo sapiens, UniProt P08684+P20815); assay: Inhibition of recombinant CYP3A4/5 in human liver microsome by Liquid chromatography-tandem mass spectrometric analysis; conditions: recombinant CYP3A4/5 in human liver microsomes
# [14] = Half-life in male Sprague-Dawley rat at 10 mg/kg, po measured up to 24 hrs by HPLC analysis; conditions: in vivo
# [15] = MRT in male Sprague-Dawley rat at 10 mg/kg, po measured up to 24 hrs by HPLC analysis; conditions: in vivo
# [16] = Half-life in male Sprague-Dawley rat at 5 mg/kg, iv measured up to 8 hrs by HPLC analysis; conditions: in vivo
# [17] = MRT in male Sprague-Dawley rat at 5 mg/kg, iv measured up to 8 hrs by HPLC analysis; conditions: in vivo
# [18] = in vivo; conditions: male, Sprague-Dawley, rat, po, 10 mg/kg
# Description: Tmax in male Sprague-Dawley rat at 10 mg/kg, po measured up to 24 hrs by HPLC analysis
# [19] = in vivo; conditions: male, Sprague-Dawley, rat, po, 10 mg/kg; remark: listed apart in the source
# Description: Cmax in male Sprague-Dawley rat at 10 mg/kg, po measured up to 24 hrs by HPLC analysis
# [20] = in vivo; conditions: male, Sprague-Dawley, rat, po, 10 mg/kg; remark: listed apart in the source
# Description: AUC (0 to infinity) in male Sprague-Dawley rat at 10 mg/kg, po measured up to 24 hrs by HPLC analysis
# [21] = in vivo; conditions: male, Sprague-Dawley, rat, po, 10 mg/kg; remark: listed apart in the source
# Description: Oral bioavailability in male Sprague-Dawley rat at 10 mg/kg measured up to 24 hrs by HPLC analysis
# [22] = in vivo; conditions: male, Sprague-Dawley, rat, iv, 5 mg/kg
# Description: Cmax in male Sprague-Dawley rat at 5 mg/kg, iv measured up to 8 hrs by HPLC analysis
# [23] = in vivo; conditions: male, Sprague-Dawley, rat, iv, 5 mg/kg; remark: listed apart in the source
# Description: AUC (0 to infinity) in male Sprague-Dawley rat at 5 mg/kg, iv measured up to 8 hrs by HPLC analysis
# [24] = in vitro; conditions: human, liver microsomes
# Description: Metabolic stability in human liver microsome assessed as half-life at 1 uM by HPLC analysis
# [25] = in vitro; conditions: rat, liver microsomes
# Description: Metabolic stability in rat liver microsome assessed as half-life at 1 uM by HPLC analysis
# [26] = in vitro; conditions: human, liver microsomes; remark: listed apart in the source
# Description: Metabolic stability in human liver microsomes assessed as intrinsic clearance per mg protein at 1 uM by HPLC analysis
# [27] = in vitro; conditions: rat, liver microsomes; remark: listed apart in the source
# Description: Metabolic stability in rat liver microsomes assessed as intrinsic clearance per mg protein at 1 uM by HPLC analysis
# [28] = in vitro; conditions: human, liver microsomes; remark: listed apart in the source
# Description: Metabolic stability in human liver microsomes assessed as hepatic clearance at 1 uM by HPLC analysis
# [29] = in vitro; conditions: rat, liver microsomes; remark: listed apart in the source
# Description: Metabolic stability in rat liver microsomes assessed as hepatic clearance at 1 uM by HPLC analysis
# T1 sequence (Q9C0B1 whole entry): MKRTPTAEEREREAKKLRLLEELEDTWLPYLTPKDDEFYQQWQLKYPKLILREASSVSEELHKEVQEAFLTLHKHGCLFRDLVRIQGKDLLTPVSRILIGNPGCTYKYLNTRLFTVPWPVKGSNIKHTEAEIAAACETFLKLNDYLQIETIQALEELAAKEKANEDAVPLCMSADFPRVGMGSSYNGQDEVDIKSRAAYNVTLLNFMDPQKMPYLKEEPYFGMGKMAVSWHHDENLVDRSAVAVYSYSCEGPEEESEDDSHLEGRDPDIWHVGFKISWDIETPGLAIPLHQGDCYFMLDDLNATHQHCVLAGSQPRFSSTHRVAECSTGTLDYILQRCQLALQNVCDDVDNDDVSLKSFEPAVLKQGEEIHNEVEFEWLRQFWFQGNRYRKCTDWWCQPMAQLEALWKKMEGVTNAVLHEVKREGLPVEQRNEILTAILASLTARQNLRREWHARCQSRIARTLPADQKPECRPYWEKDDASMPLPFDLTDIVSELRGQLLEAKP
smiles,measurement,setting,value
O=c1cc(-c2ccc(O)c(O)c2)oc2ccccc12,IC50,[1],5.7 µM
O=c1c(O)c(-c2ccc(O)cc2)oc2ccccc12,IC50,[1],18.5 µM
O=c1cc(-c2cc(O)c(O)c(O)c2)oc2ccccc12,IC50,[1],13.9 µM
O=c1ccoc2cc(O)ccc12,IC50,[1],16.2 µM
O=c1cc(-c2ccccc2)oc2cccc(O)c12 [5-HYDROXYFLAVONE],IC50,[1],19.2 µM
O=c1cc(-c2ccccc2)oc2ccc(O)cc12 [6-HYDROXYFLAVONE],IC50,[1],17.8 µM
O=c1cc(-c2ccccc2)oc2cc(O)ccc12 [7-HYDROXYFLAVONE],IC50,[1],17.9 µM
O=c1cc(-c2ccc(O)cc2)oc2cc(O)cc(O)c12 [APIGENIN],IC50,[1],12.1 µM
O=c1cc(-c2ccccc2)oc2cc(O)c(O)c(O)c12 [BAICALEIN],IC50,[1],17.1 µM
O=c1ccoc2ccccc12 [CHROMONE],IC50,[1],89.8 µM
CCN(CC)C(=O)/C(C#N)=C/c1cc(O)c(O)c([N+](=O)[O-])c1 [ENTACAPONE],IC50,[2],4 µM
O=C1C[C@@H](c2ccc(O)c(O)c2)Oc2cc(O)cc(O)c21 [ERIODICTYOL],Kd,[3],2.8 µM
same,IC50,[1],3.5 µM
same,Kd,[4],3.24 µM
same,Kd,[5],257 µM
same,Kd,[6],47.6 µM
same,Kd,[7],170 µM
same,Kd,[8],109 µM
same,Kd,[9],186 µM
same,IC50,[10],> 50 µM
same,IC50,[11],44 µM
same,IC50,[12],> 50 µM
same,IC50,[13],> 50 µM
same,half-life at 24 h,[14],3.35 h
same,MRT at 24 h,[15],1.89 h
same,half-life at 8 h,[16],1.63 h
same,MRT at 8 h,[17],0.828 h
same,Tmax at 24 h,[18],0.5 h
same,Cmax at 24 h,[19],472 ng/mL
same,AUC(0-inf) at 24 h,[20],559 ng·h/mL
same,bioavailability at 24 h,[21],29.9%
same,Cmax at 8 h,[22],1830 ng/mL
same,AUC(0-inf) at 8 h,[23],932 ng·h/mL
same,half-life at 1 µM,[24],> 3.11 h
same,half-life at 1 µM,[25],0.345 h
same,microsomal CLint at 1 µM,[26],< 7.4 µL/min/mg
same,microsomal CLint at 1 µM,[27],67.2 µL/min/mg
same,CLhep predicted at 1 µM,[28],< 6.1 mL/min/kg
same,CLhep predicted at 1 µM,[29],37.9 mL/min/kg
O=c1c(O)c(-c2ccc(O)c(O)c2)oc2cc(O)ccc12 [FISETIN],IC50,[1],9.2 µM
O=c1c(O)c(-c2ccccc2)oc2cc(O)cc(O)c12 [GALANGIN],IC50,[1],19.1 µM
COc1ccc(-c2oc3cc(O)cc(O)c3c(=O)c2O)cc1 [KAEMPFERIDE],IC50,[1],18.2 µM
O=c1c(O)c(-c2ccc(O)cc2)oc2cc(O)cc(O)c12 [KAEMPFEROL],IC50,[1],17.6 µM
O=c1cc(-c2ccc(O)c(O)c2)oc2cc(O)cc(O)c12 [LUTEOLIN],IC50,[1],7.5 µM
O=c1c(O)c(-c2ccc(O)cc2O)oc2cc(O)cc(O)c12 [MORIN],IC50,[1],13.9 µM
O=c1c(O)c(-c2cc(O)c(O)c(O)c2)oc2cc(O)cc(O)c12 [MYRICETIN],Kd,[3],34 µM
same,IC50,[1],9.6 µM
O=c1c(O)c(-c2ccc(O)c(O)c2)oc2cc(O)cc(O)c12 [QUERCETIN],IC50,[1],9.5 µM
O=c1cc(-c2ccc(O)cc2)oc2cc(O)c(O)c(O)c12 [SCUTELLAREIN],IC50,[1],15.6 µM
O=c1cc(-c2cc(O)c(O)c(O)c2)oc2cc(O)cc(O)c12 [TRICETIN],IC50,[1],7.7 µM
